Reference: US4551453A, “2-(ω-Alkylaminoalkyl)- and 2-(ω-dialkylaminoalkyl-3-(4-X-benzylidene)-phthalimidines” (Laboratori Baldacci SpA, priority 1982, dated 1985)
Counter-ions that a name gives are not always drawn.

Key:
[1] = test system: sciatic nerve of edible frog; assay: Test on the sciatic nerve of frog (inhibition of action potential); details: for times more powerful than procaine: sciatic nerve of frog, vs procaine; for times more active than lidocaine: deduced from frog sciatic nerve comparison with procaine and literature lidocaine/procaine ratio
Description: There was assessed the concentration of the tested substances (AL 12, AL 12 B and AL 5) capable of inhibiting or reducing the action potential of the sciatic nerve of edible frog after removal of a lenght of perinerium.
The stimulating device was sending maximum pulses of 0.1 msec of duration.
The reductions of the action potential after application of the substances were indicated as percentages of the initial action potential.
The comparison substance was procaine at the following concentrations: 0.4-0.6 and 0.8M

[2] = test system: vagal nerve of chicken; assay: Test of inhibition of the action potential of the vagal nerve of chicken; details: for IC50: parameter (b), stimulations higher than the maximum, read-out: ED 50, inhibition of the width of the action potential; for effects vs tetracaine: same molar concentrations as tetracaine
Excerpt: For these tests two investigation parameters were selected:
(a) increase of the stimulating threshold necessary to induce the appearance of the action potential;
(b) inhibition of the potential width as induced by the supra maximum stimulation. AL 12 and AL 12 B were compared with the tetracaine.

[3] = test system: mice; details: i.v. route
[4] = Pharmacodynamic tests (overall local anesthetic activity comparison); details: AL 12 vs lidocaine, as it appears from the pharmacodynamic tests
Description: As regards the pharmacodynamic tests, they were carried out on the following compounds:
The local anesthetic power of these compounds was tested in comparison with procaine, xylocaine and tetracaine.

[5] = in vivo; details: mouse
[6] = test system: cellular line Hela of human fibroplasts; assay: DNA recovery test (non programmed synthesis of recovery DNA); assay type: cell-based; details: up to the concentration of 5 ml (so in the source)
Description: (§1) The compound AL 12 was subjected to the tests of genic mutation. All the tests used for such experiments were carried out and precisely:
(c) DNA recovery test, i.e. test of the non programmed synthesis of recovery DNA on the cellular line Hela of human fibroplasts.

[7] = test system: Schizosaccharomyces Pombe; assay: Test of genic mutation (forwardly); assay type: cell-based; details: up to the concentration of 5 ml (so in the source)
Description: as §1
(b) Test of genic mutation (forwardly) of Schizosaccharomyces Pombe, permitting the evaluation of every mutagenic event capable of varying the functionality of every 5 genes involved in the synthesis of adenine;

[8] = test system: Salmonella Typhymurium; assay: Ames test; assay type: cell-based; details: up to the concentration of 5 ml (so in the source)
Description: as §1
(a) Ames test using as the substrate a protocariote organism as Salmonella Typhymurium;

[9] = test system: rabbit cornea; assay: Test of the rabbit cornea; assay type: in vivo
Excerpt: There were used amounts of AL 12 of 0.25-0.50-1.0% in comparison with amounts of 1% and 2% of xylocaine.

[10] = Lethality and toxicity for single dose (rat); details: in vivo, ip
Excerpt: Lethality and toxicity for single dose

[11] = test system: Male and female rats; assay: 60 day intramuscular toxicological study; assay type: in vivo; details: 60 days
Description: (§2) In order to shown the potential toxicity of the compound AL 12 B a toxicological study was programmed which either for the duration of the administration period (60 days), and for the route of introduction in the organism (intramuscular) and for the variety of used dosages (5-10-20 mg/kg) was surely suitable to indicate the possible toxicity of the substance.
(§3) It is pointed out that the lowest dose used in the test is already about 5 to 10 times higher than the single therapeutical dose, possibly used by infiltration in the human being. Male and female rats, having respectively a body weight of about 90 and 65 g, were divided in groups of 6-9 animals of the same sex and stalled in 2 to 3 animals per cage with water and food ad libitum.
(§4) The environment conditions were maintained constant at 24° C., moisture at night-day cycle.
(§5) The drug in apirogenic sterile solution was daily injected by intramuscolar route. At the end of the treatment the animals were anesthetized for the blood removal for the hematochemical and hematological examinations. The animals were than sacrificed and the weight of the single fresh organs was carefuly recorded. The hematochemical parameters which were taken into consideration were the following: glycemia, uricemia, alkaline phosphatase (ALP) malate dehydrogenase (MDH), acetylcholinesterase (CHE), SGPT, SGOT, L-y-glutamyltransferase (Y.G.T.), ornitincarbonyltransferase (O.C.T.), triocylglycerolacylhydrolase (Lipase), isocitratedehydrogenase (ICDH), sorbitole dehydrogenase (SDH), hydroxybutyrate dehydrogenase (HCDH), lactic dehydrogenase (LDHP), […] arylamidase (LAP), sodiemia, potassiemia, chloridemia, magnesiemia, calcemia, total tryglicerides, albumins, globulins, A/G total proteins, total cholesterole, amylasemia, creatininemia. Some hematological parameters were furthermore measured: red corpuscles, platelets, white corpusles, leucocitary form, hemoglobine.
(§6) The urinary parameters taken into consideration were, besides the 24 hour volume, azotemia, creatininuria, amylasuria, uricuria, calciuria, chlorides, sodium and potassium.
(§7) For the statistical evaluations of the weight of the fresh organs the analysis of the covariations was effected in order to eliminate the possible influences of the body weight onto the organ weight.
(§8) The hematological and hematochemical parameters were statistically balanced by means of the variancy analysis by taking into consideration all the gropus and the Student "t" amongst the single treated groups and the control group.
(§9) The homogeneity of the leucocitary form was investigated by the .chi.^2 test.

[12] = 60 day intramuscular toxicological study; assay type: in vivo, rats; details: rat, in vivo, im; rats, i.m., 60 days; read-out: dosage of first toxic alterations relative to single dose useful in the human being
Description: as §2, §3, §4, §5, §6, §7, §8, §9

[13] = test system: sciatic nerve of edible frog; details: as unanimously stated in the literature; cited from earlier work
[14] = test system: Wistar rats; assay: Subacute toxicity, 15 days intramuscular; details: 10 mg/kg AL 12 or lidocaine at equivalent molecular dose
Description: It was tested in two stocks of Wistar rats, in three groups each comprising 20 animals, (10 male and 10 female).
The injections were carried out by intramuscolar route in a point of the thigh for 15 days.

## CN(C)CCCN1C(=O)c2ccccc2C1=Cc1ccccc1 [AL 5, 3-benzylidene-2-(γ-dimethylaminopropyl)-phthalimidine hydrochloride]
[1]
  times more powerful than procaine: about 5 times

## CCN(CC)CCN1C(=O)c2ccccc2C1=Cc1ccc(OC)cc1 [AL 12, 3-(4-methoxybenzylidene)-2-(β-diethylaminoetyl)phthalimidine hydrochloride]
[2]
  IC50: 0.008 µM
  effects vs tetracaine: almost perfectly superimposable to those of tetracaine
[3]
  acute toxicity, times higher in comparison with lidocaine: about 2.4 (2.37) times
[4]
  local anesthetic activity: lidocaine is about n times less active than AL 12: about 4 times
[5]; im
  LD50: 32.5 mg/kg
[5]; iv
  LD50: 13.5 mg/kg
[1]
  times more active than lidocaine: 5-6 times
  times more powerful than procaine: about 11.5 times
[6]
  induction of mutations, DNA recovery test: unable to induce mutations
[7]
  induction of mutations, genic mutation (forwardly): unable to induce mutations
[8]
  induction of mutations, Ames test: unable to induce mutations
[9]; 0.25% AL 12
  duration of complete anesthesy: 30 min
[9]; 0.25% AL 12 vs 4 times higher xylocaine
  duration of complete anesthesy vs xylocaine at a 4 times higher concentration: slightly lower
[9]; 0.50% AL 12
  duration of the complete anesthesy: more than 90 minutes
[9]; 0.50% AL 12 vs 2% xylocaine
  anesthetic power vs xylocaine at a 4 times higher dose: higher
[10]
  LD50: 52.5 mg/kg

## CCN(CC)CCN1C(=O)c2ccccc2C1=Cc1ccc(OC(C)=O)cc1 [AL 12B, 3-(4-acetoxybenzylidne)-2-(β diethylaminoethyl)-phthalimidine hydrochloride]
[2]
  effects vs tetracaine: almost perfectly superimposable to those of tetracaine
[11]; 5 mg/kg i.m.
  all the investigated parameters: none appeared to be modified
[11]; female, 10 mg/kg i.m.
  HBDG: increase
  LDH-P: increase
  globulins: increase
  urinary parameters, females: no alteration might be appreciated
[11]; female, 20 mg/kg i.m.
  alterations in female animals: no alteriation might be appreciated
[11]; male and female rats, 5-10-20 mg/kg i.m.
  body weight growth vs control: comparable with that of the control animals
[11]; male and female, 10 mg/kg i.m.
  hematological parameters: None of the hematological parameters was modified
[11]; male rats, 10-20 mg/kg i.m.
  body weight growth, males at higher dosages (not statistically significant): tendentially reduced
[11]; male, 10 mg/kg i.m.
  albumins: reduction
  amylasuria: reduced
  glycemia: reduction
  spleen weight, males: slight increase
  urinary chloride: reduced
[11]; male, 20 mg/kg i.m.
  weight of the spleen: increased
  weight of the suprarenal glands: increased
[11]; male, found also in female, 10 mg/kg i.m.
  ALP (alkaline phosphatase): slight increase
[11]; rats, 5-10-20 mg/kg i.m.
  dose-dependence of the observed modifications: none of the observed modifications, was shown to be dose-dependent
  overall toxicity: not particularly toxic
[12]
  selectivity ratio at 1440 h: 10
[1]
  times more active than lidocaine: about 4 times
  times more powerful than procaine: at least 8.5 times
[1]; sciatic nerve of edible frog, read-out: ED50 (reduction of action potential)
  IC50: 80000 µM

## CCN(CC)CC(=O)Nc1c(C)cccc1C [lidocaine]
[13]
  local anesthetic activity, times higher than procaine: about 2.2 times
[14]; all along the treatment period
  food consumption and diuresis: normal
[14]; intramuscular, 15 days
  all the other functions: remained unchanged
  autoptic examination: Nothing out of the rule was observed
  loss of functionality of the injected leg, duration: about one
  weight of the organs vs control animals: did not differ from that of the control animals

## CCCCNc1ccc(C(=O)OCCN(C)C)cc1 [tetracaine, reference compound]
[2]
  IC50: 0.008 µM

## CCN(CC)CC(=O)Nc1c(C)cccc1C [xylocaine, reference compound]
[9]; 2% xylocaine
  duration of the complete anesthesy: 60 min
